According to paper PMC10470053, “Diverse p120RasGAP interactions with doubly phosphorylated partners EphB4, p190RhoGAP, and Dok1” (The Journal of Biological Chemistry, 2023):
Square brackets hold non-standard residues; d marks the D form. Ends that are not written are not given here. Peptide text beside a SMILES is read from it. pY = N[C@@H](Cc1ccc(OP(=O)(O)O)cc1)C(=O)O

System: RasGAP^FL (full-length RasGAP) GAP activity toward H-Ras
Assay: In vitro GAP assay, single turnover fluorescence-based phosphate sensor
Type: biochemical, human
Settings: 50 μM peptide, 25 nM RasGAP^FL, 0.8 μM GTP-H-Ras, 1 μM phosphate sensor, 20 mM Tris pH 8, 50 mM NaCl; first 10 min after Mg2+; n = 4 to 14, Mann-Whitney
From the text: Finally, to probe whether the conformational movements in the SH2-SH3-SH2 region nonetheless impact catalytic activity in vitro, we conducted GAP assays. […] Our SAXS data for RasGAP^232 may provide a basis for how this is achieved: by inducing local changes in 232 conformations upon peptide engagement. Therefore, we purified full-length RasGAP (residues 1–1047, termed RasGAP^FL, Fig. S2G) and assessed activity against purified H-Ras GTPase domain preloaded with GTP (residues 1–167, Fig. S2H) in a single turnover fluorescence-based phosphate sensor assay that monitors phosphate release in real time ([64]). We find that RasGAP^FL activates H-Ras, as expected (Fig. 6) ([61], [62]). […]
Figure 6 In vitro GAP assays.A, GAP assay for full-length RasGAP activation of GTP-loaded H-Ras. […] Initial rates calculated for each reaction using only the first 10 min after addition of Mg^2+, where the phosphate release rate was linear. […]
H-Ras was preloaded with GTP by mixing purified H-Ras^1-167 protein, 10 mM EDTA, and 10-fold excess GTP in 20 mM Tris pH 8, 100 mM NaCl for 1 h at room temperature. […] Fluorescence excitation and emission settings were 430 nm and 450 nm, respectively with a bandwidth of 10 nm, and readings were taken in 1-min intervals. […]

Compound: CC[C@H](C)[C@H](NC(=O)[C@H](CCCNC(=N)N)NC(=O)[C@H](CC(C)C)NC(=O)[C@H](CO)NC(=O)[C@H](CC(=O)O)NC(=O)[C@H](CC(C)C)NC(=O)[C@@H]1CCCN1C(=O)[C@H](CCC(=O)O)NC(=O)[C@H](C)NC(=O)[C@H](Cc1ccc(OP(=O)(O)O)cc1)NC(=O)[C@H](CC(C)C)NC(=O)[C@H](C)NC(=O)[C@@H]1CCCN1C(=O)[C@@H]1CCCN1C(=O)[C@H](CO)NC(C)=O)C(=O)N[C@@H](C)C(=O)N1CCC[C@H]1C(=O)N[C@@H](CS)C(=O)N1CCC[C@H]1C(=O)N[C@@H](CO)C(=O)N[C@@H](CCC(N)=O)C(=O)N[C@@H](CC(=O)O)C(=O)N[C@@H](CO)C(=O)N[C@@H](CC(C)C)C(=O)N[C@@H](Cc1ccc(OP(=O)(O)O)cc1)C(=O)N[C@@H](CO)C(=O)N[C@@H](CC(=O)O)C(=O)N1CCC[C@H]1C(=O)N[C@@H](CC(C)C)C(=O)N[C@@H](CC(=O)O)C(=O)N[C@@H](CO)C(=O)N[C@H](C(N)=O)[C@@H](C)O [pYpY Dok1] (Ac-SPPAL[pY]AEPLDSLRIAPCPSQDSL[pY]SDPLDST-NH2)
- effect of peptide on in vitro GAP activity (initial rate of phosphate release): do not impact GAP activity

Compound: SD[pY]AEPMDAVVKPRNEEENI[pY]SVPH [pYpY p190RhoGAP-A, Doubly phosphorylated p190RhoGAP-A peptide (pY1087, pY1105)]
- effect of peptide on in vitro GAP activity (initial rate of phosphate release): do not impact GAP activity
